# According to patent US20160340633A1, “PLURIPOTENT STEM CELL EXPANSION AND PASSAGE USING A ROCKING PLATFORM BIOREACTOR” (General Electric Company, priority 2015, published 2016):
# Tested on: CT2 human embryonic stem cells
# Assay: Expansion of slicer-passaged pluripotent stem cell aggregates cultured with or without Y27632 ROCK inhibitor
# Type: cell-based
# Method: In one example, aggregate formation and cell expansion was measured after passage with Accutase™ or with the square grid or hexagon grid slicer. After passaging, CT2 human embryonic stem cells were seeded in 6 well plates in 2 ml mTeSR1 at either 4×10̂5 cells per mL or 1.5×10̂6 cells per mL, with or without 10 uM Y27632 ROCK inhibitor. The plates were maintained on a Boekel Scientific Rocker II 260350 rocker platform in a standard cell culture incubator at 37 degrees C., 5% CO2, with culture conditions of 20 rocks per minute at a 15 degree rock angle. Aggregates formed from the accutased cells after overnight culture. Each day, the spent mTeSR1 was completely removed and replaced with fresh mTeSR1 without Y27632 ROCK inhibitor. On day 4, the aggregates were recovered, dissociated with Accutase™ and enumerated using a Nucleocounter NC200. […]
# Aggregates were passed across the slicer in a flow stream consisting of 100 mL to 1 L volumes. […] The cell aggregate concentration used to pass through the slicer was determined to influence the recovery of sliced cell aggregates at high viability. […] It was determined that slicing of cell aggregate concentrations below about 3×10̂6 cells per mL produced higher viability samples with higher recovery than cell concentrations greater than about 3×10̂6 cells per mL. […]
smiles,measurement,setting,value
"C[C@@H](N)[C@H]1CC[C@H](C(=O)Nc2ccncc2)CC1 [Y27632 ROCK inhibitor, Y-27632]",expansion rates of slicer passaged aggregates cultured with or without Y27632 ROCK inhibitor,"10 uM at seeding, 4×10^5 or 1.5×10^6 cells per mL, 6 well plates, rocking, counted day 4, square or hexagon grid slicer",similar
same,requirement of Y27632 ROCK inhibitor for expansion of sliced pluripotent stem cell aggregates,"sliced aggregates in mTeSR1, optionally 1 to 10 uM, unlike enzymatically passaged aggregates",not required
